Literature values, collected in patent publication EP2545940A9, “Parenteral compositions” (hameln rds gmbh, priority 2011, dated 2013).
Read-outs that look alike come from different tables or passages of the source.

Details: 25°C

Paracalcin (cosolvent: Ethanol 0.00, Propylene glycol 0.302, Water 0.698): 0.58 µg/mL
Paracalcin (cosolvent: Ethanol 0.00, Propylene glycol 0.506, Water 0.494): 14.21 µg/mL
Paracalcin (cosolvent: Ethanol 0.100, Propylene glycol 0.257, Water 0.643): 2.88 µg/mL
Paracalcin (cosolvent: Ethanol 0.199, Propylene glycol 0.207, Water 0.594): 15.94 µg/mL
Paracalcin (cosolvent: Ethanol 0.201, Propylene glycol 0.308, Water 0.491): 72.90 µg/mL
Paracalcin (cosolvent: Ethanol 0.299, Propylene glycol 0.00, Water 0.701): 6.82 µg/mL
Paracalcin (cosolvent: Ethanol 0.347, Propylene glycol 0.102, Water 0.551): 119.37 µg/mL
Paracalcin (cosolvent: Ethanol 0.498, Propylene glycol 0.00, Water 0.502): 601.63 µg/mL
Compound: C[C@H](/C=C/[C@H](C)C(C)(C)O)[C@H]1CC[C@H]2/C(=C/C=C3C[C@@H](O)C[C@H](O)C3)CCC[C@]12C [Paracalcin, (1 R, 3R, 7E, 17β) -17 - [(1 R, 2E, 4S)-5-Hydroxy-1 ,4,5-trimethylhex-2-en-1-yl] -9,10-secoestra-5,7-Dien-1 ,3-diol]
